Measurements: patent US10167279B2 (NOVARTIS AG, priority 2014, dated 2019)

Tests used:
C-Raf FL = C-Raf FL (Homo sapiens (Human), UniProt P04049, Y340E/Y341E); assay: In vitro Raf activity determination (Alpha Screen, phospho-MEK), C-Raf FL (full length, Y340E/Y341E); assay type: biochemical; conditions: ATP 1 μM; 60 min pre-incubation; 1 hour reaction; column head does not say FL or TR
Procedure, shortened: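 Read-out is AlphaScreen luminescence using rabbit anti-p-MEK with protein A beads after EDTA stop, with IC50 fitted by non-linear regression. Reaction: Sf9-derived C-Raf plus biotinylated E. coli MEK1 K97R substrate, pH 7.5 Tris/MgCl2/DTT buffer, compound preincubated 60 min at room temperature.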

b-Raf (V600E) = b-Raf (V600E) (Homo sapiens (Human), UniProt P15056, V600E); assay: In vitro Raf activity determination (Alpha Screen, phospho-MEK), b-Raf (V600E); assay type: biochemical; conditions: ATP 10 μM, 60 min pre-incubation, 3 hours reaction
b-Raf (V600E), sequence (P15056 whole entry V600E): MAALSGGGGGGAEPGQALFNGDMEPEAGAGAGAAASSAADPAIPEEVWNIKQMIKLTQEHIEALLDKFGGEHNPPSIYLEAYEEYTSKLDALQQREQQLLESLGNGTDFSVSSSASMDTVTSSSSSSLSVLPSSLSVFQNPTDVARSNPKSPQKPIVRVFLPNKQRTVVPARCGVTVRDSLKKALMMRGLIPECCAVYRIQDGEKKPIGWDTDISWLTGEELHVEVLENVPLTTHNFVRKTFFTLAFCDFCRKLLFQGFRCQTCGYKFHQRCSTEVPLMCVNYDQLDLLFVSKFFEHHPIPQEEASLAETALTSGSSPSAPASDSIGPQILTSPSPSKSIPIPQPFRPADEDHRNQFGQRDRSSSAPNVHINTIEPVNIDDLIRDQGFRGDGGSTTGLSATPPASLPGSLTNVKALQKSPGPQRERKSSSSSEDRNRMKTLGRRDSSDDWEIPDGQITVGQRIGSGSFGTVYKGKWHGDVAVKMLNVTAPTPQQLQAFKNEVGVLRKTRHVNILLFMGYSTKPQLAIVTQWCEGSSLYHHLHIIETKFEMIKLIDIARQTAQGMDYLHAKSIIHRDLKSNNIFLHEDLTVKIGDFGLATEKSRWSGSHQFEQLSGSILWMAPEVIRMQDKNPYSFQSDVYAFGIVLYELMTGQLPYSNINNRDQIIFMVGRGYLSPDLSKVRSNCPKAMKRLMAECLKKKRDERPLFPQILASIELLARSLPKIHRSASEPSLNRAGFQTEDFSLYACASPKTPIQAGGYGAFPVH

C-Raf FL, sequence (P04049 whole entry Y340E/Y341E): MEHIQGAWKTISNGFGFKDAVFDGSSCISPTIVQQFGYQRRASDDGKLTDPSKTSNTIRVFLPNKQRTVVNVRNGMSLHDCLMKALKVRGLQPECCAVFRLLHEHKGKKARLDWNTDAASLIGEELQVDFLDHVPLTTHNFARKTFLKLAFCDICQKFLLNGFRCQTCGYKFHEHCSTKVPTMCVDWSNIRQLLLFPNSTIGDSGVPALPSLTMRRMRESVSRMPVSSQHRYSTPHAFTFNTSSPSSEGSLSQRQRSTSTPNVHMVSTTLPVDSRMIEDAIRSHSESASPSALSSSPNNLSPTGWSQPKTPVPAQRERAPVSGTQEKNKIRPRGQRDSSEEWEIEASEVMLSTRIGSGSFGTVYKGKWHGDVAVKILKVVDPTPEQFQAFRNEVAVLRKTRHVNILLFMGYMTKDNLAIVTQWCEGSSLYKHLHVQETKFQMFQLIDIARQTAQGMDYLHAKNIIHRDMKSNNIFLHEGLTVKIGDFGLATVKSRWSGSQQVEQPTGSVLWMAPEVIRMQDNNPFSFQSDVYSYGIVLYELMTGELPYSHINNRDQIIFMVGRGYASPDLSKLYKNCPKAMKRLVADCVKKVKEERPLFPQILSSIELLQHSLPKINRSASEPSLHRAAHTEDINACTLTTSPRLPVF
C-Raf FL, sequence (P63104 whole entry partner): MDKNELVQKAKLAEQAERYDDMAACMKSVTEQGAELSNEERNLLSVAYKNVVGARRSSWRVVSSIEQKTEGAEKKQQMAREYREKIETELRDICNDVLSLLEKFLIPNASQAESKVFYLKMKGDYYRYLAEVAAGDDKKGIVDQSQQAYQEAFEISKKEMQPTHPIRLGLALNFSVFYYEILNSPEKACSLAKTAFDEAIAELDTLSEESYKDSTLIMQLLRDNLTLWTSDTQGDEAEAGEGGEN

In the case of `COc1ncc(-c2cc(NC(=O)c3ccnc(C(C)(F)F)c3)ccc2C)cc1C1(CF)COC1` [Example 103, 2-(1,1-difluoroethyl)-N-(3-(5-(3-(fluoromethyl)oxetan-3-yl)-6-methoxypyridin-3-yl)-4-methylphenyl)isonicotin-amide], the IC50 (C-Raf FL) is reported as 0.0844 nM and the IC50 (b-Raf (V600E)) is reported as 0.293 nM.
`COc1ncc(-c2cc(NC(=O)c3ccnc(C(C)(C)F)c3)ccc2C)cc1C1(CF)COC1` [Example 104, N-(3-(5-(3-(fluoromethyl)oxetan-3-yl)-6-methoxypyridin-3-yl)-4-methylphenyl)-2-(2-fluoropropan-2-yl)isonicotinamide] showed an IC50 (C-Raf FL) of 0.128 nM and an IC50 (b-Raf (V600E)) of 0.417 nM.
Compound `COc1ncc(-c2cc(NC(=O)c3ccnc(C(F)(F)F)c3)ccc2C)cc1C1(CF)COC1` [Example 105, N-(3-(5-(3-(fluoromethyl)oxetan-3-yl)-6-methoxypyridin-3-yl)-4-methylphenyl)-2-(trifluoromethyl)isonicotin-amide] has an IC50 (C-Raf FL) of 0.0915 nM and an IC50 (b-Raf (V600E)) of 0.323 nM.
Compound `COc1ncc(-c2cc(NC(=O)c3ccnc(C(C)(C)C#N)c3)ccc2C)cc1C1(CF)COC1` [Example 106, 2-(2-cyanopropan-2-yl)-N-(3-(5-(3-(fluoromethyl)oxetan-3-yl)-6-methoxypyridin-3-yl)-4-methylphenyl)isonicotin-amide] has an IC50 (C-Raf FL) of 0.146 nM and an IC50 (b-Raf (V600E)) of 0.58 nM.
For `COc1ncc(-c2cc(NC(=O)c3cc(C(C)(C)N)cc(C(F)(F)F)c3)ccc2C)cc1C1(F)COC1` [Example 107, 3-(2-aminopropan-2-yl)-N-(3-(5-(3-fluorooxetan-3-yl)-6-methoxypyridin-3-yl)-4-methylphenyl)-5-(trifluoromethyl)benzamide], the IC50 (C-Raf FL) was 0.725 nM and the IC50 (b-Raf (V600E)) was 2.96 nM.
In the case of `COc1ncc(-c2cc(NC(=O)c3cc(C(C)(C)N)cc(C(F)(F)F)c3)ccc2C)cc1C1(CF)COC1` [Example 108, 3-(2-aminopropan-2-yl)-N-(3-(5-(3-(fluoromethyl)oxetan-3-yl)-6-methoxypyridin-3-yl)-4-methylphenyl)-5-(trifluoromethyl)benzamide], the IC50 (C-Raf FL) is reported as 0.424 nM and the IC50 (b-Raf (V600E)) is reported as 1.8 nM.
`COc1ncc(-c2cc(NC(=O)c3cc(C(C)(C)N)cc(C(F)(F)F)c3)cnc2C)cc1C1(CF)COC1` [Example 109, 3-(2-aminopropan-2-yl)-N-(5′-(3-(fluoromethyl)oxetan-3-yl)-6′-methoxy-2-methyl-[3,3′-bipyridin]-5-yl)-5-(trifluoromethyl)benzamide] showed an IC50 (C-Raf FL) of 2.24 nM and an IC50 (b-Raf (V600E)) of 9.5 nM.
`Cc1ccc(NC(=O)c2ccnc(C(C)(C)F)c2)cc1-c1cc(C2COC2)c(=O)n(C)c1` [Example 110, 2-(2-fluoropropan-2-yl)-N-(4-methyl-3-(1-methyl-5-(oxetan-3-yl)-6-oxo-1,6-dihydropyridin-3-yl)phenyl)isonicotinamide] showed an IC50 (C-Raf FL) of 1.52 nM and an IC50 (b-Raf (V600E)) of 9.98 nM.
For `COc1ncc(-c2cc(NC(=O)c3ccnc(C(C)(C)F)c3)ccc2C)cc1C1(C#N)COC1` [Example 111, N-(3-(5-(3-cyanooxetan-3-yl)-6-methoxypyridin-3-yl)-4-methylphenyl)-2-(2-fluoropropan-2-yl)isonicotinamide], the IC50 (C-Raf FL) was 0.716 nM and the IC50 (b-Raf (V600E)) was 2.75 nM.
`COc1ncc(-c2cc(NC(=O)c3cc(C(C)(C)N)cc(C(F)(F)F)c3)ccc2C)cc1C1(C(F)F)COC1` [Example 112, 3-(2-aminopropan-2-yl)-N-(3-(5-(3-(difluoromethyl)oxetan-3-yl)-6-methoxypyridin-3-yl)-4-methylphenyl)-5-(trifluoromethyl)benzamide] gave an IC50 (C-Raf FL) of 0.225 nM and an IC50 (b-Raf (V600E)) of 1.21 nM.
With `COc1ncc(-c2cc(NC(=O)c3cc(C(C)(C)N)cc(C(F)(F)F)c3)cnc2C)cc1C1(C(F)F)COC1` [Example 113, 3-(2-aminopropan-2-yl)-N-(5′-(3-(difluoromethyl)oxetan-3-yl)-6′-methoxy-2-methyl-[3,3′-bipyridin]-5-yl)-5-(trifluoromethyl)benzamide] the IC50 (C-Raf FL) was 0.9 nM and the IC50 (b-Raf (V600E)) was 4.75 nM.
`COc1ncc(-c2cc(NC(=O)c3cc(C(C)(C)N)cc(C(F)(F)F)c3)cnc2C)cc1C1(C#N)COC1` [Example 114, 3-(2-aminopropan-2-yl)-N-(5′-(3-cyanooxetan-3-yl)-6′-methoxy-2-methyl-[3,3′-bipyridin]-5-yl)-5-(trifluoromethyl)benzamide] was tested, and the IC50 (C-Raf FL) was 3.26 nM and the IC50 (b-Raf (V600E)) was 17.5 nM.
In the case of `COc1ncc(-c2cc(NC(=O)c3ccnc(C(F)(F)F)c3)cnc2C)cc1C1(C#N)COC1` [Example 115, N-(5′-(3-cyanooxetan-3-yl)-6′-methoxy-2-methyl-[3,3′-bipyridin]-5-yl)-2-(trifluoromethyl)isonicotin-amide], the IC50 (C-Raf FL) is reported as 1.06 nM and the IC50 (b-Raf (V600E)) is reported as 7.01 nM.
For `COc1ncc(-c2cc(NC(=O)c3ccnc(C(C)(F)F)c3)cnc2C)cc1C1(C#N)COC1` [Example 116, N-(5′-(3-cyanooxetan-3-yl)-6′-methoxy-2-methyl-[3,3′-bipyridin]-5-yl)-2-(1,1-difluoroethyl)isonicotin-amide], the IC50 (C-Raf FL) was 1.25 nM and the IC50 (b-Raf (V600E)) was 6.22 nM.
In the case of `CCC(F)(F)c1cc(C(=O)Nc2cnc(C)c(-c3cnc(OC)c(C4(C#N)COC4)c3)c2)ccn1` [Example 117, N-(5′-(3-cyanooxetan-3-yl)-6′-methoxy-2-methyl-[3,3′-bipyridin]-5-yl)-2-(1,1-difluoropropyl)isonicotin-amide], the IC50 (C-Raf FL) is reported as 1.43 nM and the IC50 (b-Raf (V600E)) is reported as 7.19 nM.
Work on `Cc1ncc(NC(=O)c2cccc(C(F)(F)F)c2)cc1-c1cnc(OC2CCOCC2)c(C2(O)COC2)c1` [Example 118, N-(5′-(3-hydroxyoxetan-3-yl)-2-methyl-6′-((tetrahydro-2H-pyran-4-yl)oxy)-[3,3′-bipyridin]-5-yl)-3-(trifluoromethyl)benzamide] yielded an IC50 (C-Raf FL) of 0.562 nM and an IC50 (b-Raf (V600E)) of 3.89 nM.
Work on `Cc1ccc(NC(=O)c2cccc(C(F)(F)F)c2)cc1-c1cnc(OC2CCOCC2)c(C2(O)COC2)c1` [Example 119, N-(3-(5-(3-hydroxyoxetan-3-yl)-6-((tetrahydro-2H-pyran-4-yl)oxy)pyridin-3-yl)-4-methylphenyl)-3-(trifluoromethyl)benzamide] yielded an IC50 (C-Raf FL) of 0.176 nM and an IC50 (b-Raf (V600E)) of 0.808 nM.
`CCOc1ncc(-c2cc(NC(=O)c3cc(C(C)(C)N)cc(C(F)(F)F)c3)ccc2C)cc1C1(O)COC1` [Example 120, 3-(2-aminopropan-2-yl)-N-(3-(6-ethoxy-5-(3-hydroxyoxetan-3-yl)pyridin-3-yl)-4-methylphenyl)-5-(trifluoromethyl)benzamide] gave an IC50 (C-Raf FL) of 2.2 nM and an IC50 (b-Raf (V600E)) of 10 nM.
With `CCOc1ncc(-c2cc(NC(=O)c3ccnc(C(C)(C)C#N)c3)ccc2C)cc1C1(O)COC1` [Example 121, 2-(2-cyanopropan-2-yl)-N-(3-(6-ethoxy-5-(3-hydroxyoxetan-3-yl)pyridin-3-yl)-4-methylphenyl)isonicotin-amide] the IC50 (C-Raf FL) was 0.975 nM and the IC50 (b-Raf (V600E)) was 4.93 nM.
For `CCOc1ncc(-c2cc(NC(=O)c3ccnc(C(C)(C)F)c3)ccc2C)cc1C1(O)COC1` [Example 122, N-(3-(6-ethoxy-5-(3-hydroxyoxetan-3-yl)pyridin-3-yl)-4-methylphenyl)-2-(2-fluoropropan-2-yl)isonicotinamide], the IC50 (C-Raf FL) was 0.321 nM and the IC50 (b-Raf (V600E)) was 1.79 nM.
In the case of `CCOc1ncc(-c2cc(NC(=O)c3ccnc(C(C)(F)F)c3)ccc2C)cc1C1(O)COC1` [Example 123, 2-(1,1-difluoroethyl)-N-(3-(6-ethoxy-5-(3-hydroxyoxetan-3-yl)pyridin-3-yl)-4-methylphenyl)isonicotin-amide], the IC50 (C-Raf FL) is reported as 0.165 nM and the IC50 (b-Raf (V600E)) is reported as 1.22 nM.
